According to patent US11365201B2, “Chlorotonil derivatives” (HELMHOLTZ-ZENTRUM FÜR INFEKTIONSFORSCHUNG GMBH, priority 2017, dated 2022):
≈ marks a conversion by molar mass, not a printed value. Like-named read-outs stand apart in the source and are kept apart here.

Columns and labels:
[1] = tested on: P. falciparum Dd2 (resistant strain); experiment: Antiplasmodial in vitro drug sensitivity assay (HRP2-ELISA); format: cell-based; conditions: Plasmodium falciparum; P. falciparum Dd2 (resistant strain); read-out: IC50 against P. falciparum Dd2
Experimental: (§1) Two laboratory strains of P. falciparum, the chloroquine sensitive 3D7 and the multi-resistant Dd2 were kept in continuous culture as previously described (Trager and Jensen 1976). In brief, parasites were kept in complete culture medium (RPMI 1640, 25 mM HEPES, 2 mM L-glutamine, 50 μg/ml gentamicin and 0.5% w/v AlbuMAX) at 37° C., 5% CO2 and 5% oxygen at 5% hematocrit with daily change of medium. Synchronization was performed with sorbitol twice a week (Lambros and Vanderberg 1979).
(§2) In Vitro Drug Sensitivity Assay
(§3) All compounds were dissolved in DMSO at stock dilutions between 25 and 100 mM; the reference drug chloroquine diphosphate (MW: 515.86) was diluted in distilled water and DMSO, respectively. […] Antiplasmodial activity of the different compounds was tested in a drug sensitivity assay against the two laboratory strains using the histidine-rich protein 2 (HRP2) assay as described previously (Noedl 2005). In brief: 96 well plates were pre-coated with the different compounds in a threefold dilution before ring stage parasites were added in complete culture medium at a hematocrit of 1.5% and a parasitemia of 0.05% in a total volume of 225 μl per well. After three days of incubation plates were frozen until analyzed by HRP2-ELISA. All compounds were evaluated in duplicate in at least two independent experiments.

[2] = tested on: P. falciparum 3D7 (sensitive strain); experiment: as above; format: cell-based; conditions: Plasmodium falciparum; P. falciparum 3D7 (sensitive strain); read-out: IC50 against P. falciparum 3D7
Experimental: as §1, §2, §3

S. aureus Newman = experiment: Antimicrobial assay, MIC by microbroth dilution; format: cell-based; conditions: Staphylococcus aureus, NEWMAN; 16 h, cation-adjusted Muller-Hinton broth
Experimental: (§4) Bacterial strains used in susceptibility assays (minimum inhibitory concentrations, MIC) were either part of our internal strain collection or were purchased form the German Collection of Microorganisms and Cell Cultures (DSMZ). All compounds were prepared as DMSO stocks and MIC values were determined in standard microbroth dilution assays. Overnight cultures of bacteria were diluted in cation-adjusted Muller-Hinton broth (BBL™, BD) and were adjusted to approximately 10^5 cfu/mL. […] Bacteria were grown in the presence of the derivatives in serial dilution for 16 h at their optimal growth temperature. MIC values were determined according to CLSI guidelines (antibiotic concentration at which no visible bacterial growth is observed).

[3] = tested on: zebrafish larvae of the AB wildtype line; experiment: Zebrafish embryo toxicity, maximum tolerated concentration (MTC), AB line; format: in vivo; conditions: for Observations noted on fish larvae / MTC (maximum tolerated concentration): AB line, at five dpf, incubation started at two dpf
Experimental: (§5) Zebrafish Embryo Toxicity
(§6) The maximum tolerated concentration (MTC) was determined on zebrafish larvae of the AB wildtype line and the TLF wild type line. Larvae were placed into a 96-well plate (one larva per well) and incubated in a solution at different concentrations (100, 50, 25, 10, 1 μM) of ChA, ChA-Epo2, ChB or ChB-Epo at two days post fertilization (dpf) for AB and in a solution at different concentrations of ChA (100, 50 μM) ChA-Epo2 (25, 10, 1 μM), ChB (100, 50 μM) or ChB-Epo (100, 50, 25 μM) at one dpf for TLF. Five zebrafish larvae were used per condition. The incubated embryos were kept in compound solutions at 28° C. until five dpf and monitored daily by microscopy. The final MTC result was recorded at five dpf. Compound solutions were prepared in the larvae medium Danieau's. Additionally a solution of 0.5% DMSO in Danieau's was used as vehicle control and Danieau's alone as a negative control.

[4] = tested on: zebrafish larvae of the TLF wild type line; experiment: Zebrafish embryo toxicity, maximum tolerated concentration (MTC), TLF line; format: in vivo; conditions: at five dpf, incubation started at one dpf
Experimental: as §5, §6

Gram-positive bacteria = experiment: Antimicrobial assay, MIC against a range of Gram-positive bacteria (Table 5); format: cell-based; conditions: read-out: MIC
Experimental: as §4

[5] = Determination of water solubility, Method 1 (suspension in tap water, weighing); format: physicochemical; conditions: thermodynamic from solid, room temperature, 18 h stirring, triplicates
Experimental: (§7) Determination of Water Solubility
10 mg of compound was suspended in 1 L of tap water and the solution was stirred at room temperature for 18 h. Upon completion, solution was sonicated for another hour, centrifuged and the supernatant was separated from the precipitate. Both aliquots were lyophilized, and weighed. This procedure was performed in triplicates.

C. glutamicum DSM-20300 = experiment: Antimicrobial assay, MIC by microbroth dilution; format: cell-based; conditions: Corynebacterium glutamicum, DSM20300; 16 h, cation-adjusted Muller-Hinton broth
Experimental: as §4

B. subtilis DSM-10 = experiment: Antimicrobial assay, MIC by microbroth dilution; format: cell-based; conditions: Bacillus subtilis, DSM10; 16 h, cation-adjusted Muller-Hinton broth
Experimental: as §4

E. coli TolC (+PMBN) = experiment: Antimicrobial assay, MIC by microbroth dilution with PMBN; format: cell-based; conditions: 16 h, 3 μg/mL polymyxin B nonapeptide (PMBN) added
Experimental: Bacterial strains used in susceptibility assays (minimum inhibitory concentrations, MIC) were either part of our internal strain collection or were purchased form the German Collection of Microorganisms and Cell Cultures (DSMZ). All compounds were prepared as DMSO stocks and MIC values were determined in standard microbroth dilution assays. Overnight cultures of bacteria were diluted in cation-adjusted Muller-Hinton broth (BBL™, BD) and were adjusted to approximately 10^5 cfu/mL. For the E. coli culture, 3 μg/mL of polymyxin B nonapeptide (PMBN) was added to increase permeability of the outer membrane as chlorotonils were previously shown to not penetrate into Gram-negative cells. Bacteria were grown in the presence of the derivatives in serial dilution for 16 h at their optimal growth temperature. MIC values were determined according to CLSI guidelines (antibiotic concentration at which no visible bacterial growth is observed).

[6] = Determination of water solubility, Method 2 (HPLC-MS standard curve, saturated solution in water); format: physicochemical; conditions: thermodynamic from solid; saturated solution in water, HPLC-MS standard curve
Experimental: as §7
A standard curve with 10 calibration points of the compound of interest is plotted using HPLC-MS and serial dilution. The dilutions and stock solutions were prepared in THF as a solvent. Following the measurements, a saturated solution in water of the compound in study was also measured. Upon plotting the standard curve using the peak areas of the MS peaks, the water samples were plotted along the curve and the solubility was then calculated.

[7] = tested on: L-929 (murine fibroblasts); experiment: Cytotoxicity assay (MTT, 5 d); format: cell-based; conditions: Mus musculus, L929, 120 h
Experimental: Cytotoxicity Assay The murine fibroblast cell line L-929 was obtained from the German Collection of Microorganisms and Cell Cultures (DSMZ) and maintained under conditions recommended by the depositor. Cells were seeded at 6×10^3 cells per well of sterile 96-well plates in 180 μL complete medium and treated with the compounds in serial dilution after 2 h of equilibration. After 5 d, viability was assessed by the MTT method. After 1.5 h incubation with 0.5 mg/mL MTT reagent, cells were washed with PBS and 100 μL of 2-propanol/10 N HCl (250:1) was added. The absorbance at 570 nm was determined on a microplate reader and cell viability was expressed as percentage relative to the respective solvent control. Half-inhibitory concentrations (IC50) were determined by sigmoidal curve fitting.

[8] = Enterococcus faecalis, E. faecalis 20478
[9] = Enterococcus faecalis, E. faecalis 29212
[10] = Enterococcus faecium, E. faecium 20477
[11] = Enterococcus faecium, VRE, E. faecium 17050 (VRE)
[12] = Mycolicibacterium smegmatis, M. smegmatis
[13] = Priestia megaterium, B. megaterium
[14] = Staphylococcus epidermidis, S. epidermidis 28765
[15] = Streptococcus pneumoniae, PRSP, S. pneumoniae 11865 (PRSP)
[16] = Streptococcus pneumoniae, S. pneumoniae 20566

C[C@@H]1C(=O)O[C@@H](C)/C=C/C=C\[C@@H](C)[C@@H]2C=C[C@@H]3C[C@@]4(C)O[C@H]4[C@@H](C)C3C2/C(O)=C(\Cl)C1=O (stereo partly shown) [ChB-Epo] showed an IC50 [1] of 182 nM, an IC50 [2] of 158 nM and an MIC (S. aureus Newman) of 0.05 µg/mL (≈ 0.108 µM). For the same compound, the “Observations noted on fish larvae” value ([3]; 50 μM) was “died”, the “Observations noted on fish larvae” value ([3]; 100 μM) was “died” and the “MTC (maximum tolerated concentration)” value [3] was 25 µM. The “Toxicity in zebrafish (MTC), comparison of the epoxide derivatives” value ([3]; zebrafish, line not named in the sentence (Tables 6 and 7)) was “less toxic than the chlorotonil A derivative”, the “Observations noted on fish larvae” value ([4]; 50 μM) was “slight tail malformation” and the “Observations noted on fish larvae” value ([4]; 100 μM) was “tail malformation”. For the same compound, the “MTC (maximum tolerated concentration)” value [4] was 25 µM, the MIC (Gram-positive bacteria; [8]) was 3.2 µg/mL (≈ 6.94 µM) and the MIC (Gram-positive bacteria; [9]) was > 3.2 µg/mL. The MIC (Gram-positive bacteria; [10]) was > 3.2 µg/mL, the MIC (Gram-positive bacteria; [11]) was 3.2 µg/mL (≈ 6.94 µM) and the MIC (Gram-positive bacteria; Micrococcus luteus, M. luteus) was 0.1 µg/mL (≈ 0.217 µM). For the same compound, the MIC (Gram-positive bacteria; [12]) was > 3.2 µg/mL, the MIC (Gram-positive bacteria; [13]) was 0.05 µg/mL (≈ 0.108 µM) and the MIC (Gram-positive bacteria; [14]) was 0.8 µg/mL (≈ 1.74 µM). The MIC (Gram-positive bacteria; [15]) was > 32 µg/mL and the MIC (Gram-positive bacteria; [16]) was 0.8 µg/mL (≈ 1.74 µM).

Work on C[C@@H]1C(=O)O[C@@H](C)/C=C/C=C\[C@@H](C)[C@@H]2C=C[C@@H]3C[C@@](C)(O)[C@H](O[N+](=O)[O-])[C@@H](C)[C@H]3[C@@H]2C(=O)C(Cl)(Cl)C1=O [ChA-Epo2-ONO2] yielded an IC50 [1] of 2.2 nM, an IC50 [2] of 0.92 nM and a solubility at 18 h [5] of 310 µg/mL (≈ 555 µM). For the same compound, the MIC (C. glutamicum DSM-20300) was 0.1 µg/mL (≈ 0.179 µM), the MIC (S. aureus Newman) was 0.025 µg/mL (≈ 0.0448 µM) and the MIC (B. subtilis DSM-10) was 0.025 µg/mL (≈ 0.0448 µM). The “MIC E. coli TolC (+PMBN)” value (E. coli TolC (+PMBN)) was 0.1 µg/mL and the solubility [6] was 380 µg/mL (≈ 680 µM).

In the case of C[C@@H]1C(=O)O[C@@H](C)/C=C/C=C\[C@@H](C)[C@@H]2C=C[C@@H]3C[C@@]4(C)O[C@H]4[C@@H](C)[C@H]3[C@@H]2C(=O)C(Cl)(Cl)C1=O [ChA-Epo2], the IC50 [1] is reported as 87.1 nM, the IC50 [2] is reported as 51.3 nM and the solubility at 18 h [5] is reported as 14 µg/mL (≈ 28.3 µM). For the same compound, the MIC (C. glutamicum DSM-20300) was 0.05 µg/mL (≈ 0.101 µM), the MIC (S. aureus Newman) was 0.025 µg/mL (≈ 0.0505 µM) and the MIC (B. subtilis DSM-10) was 0.025 µg/mL (≈ 0.0505 µM). For the same compound, the “MIC E. coli TolC (+PMBN)” value (E. coli TolC (+PMBN)) was 0.1 µg/mL, the “Observations noted on fish larvae” value ([3]; 10 μM) was “died” and the “Observations noted on fish larvae” value ([3]; 25 μM) was “died”. For the same compound, the “Observations noted on fish larvae” value ([3]; 50 μM) was “died”, the “Observations noted on fish larvae” value ([3]; 100 μM) was “died” and the “MTC (maximum tolerated concentration)” value [3] was 1 µM. The IC50 [7] was 2100 nM, the solubility [6] was 10.3 µg/mL (≈ 20.8 µM) and the “Observations noted on fish larvae” value ([4]; 10 μM) was 4 delayed in development. The “Observations noted on fish larvae” value ([4]; 25 μM) was 1 died, 4 delayed in, the “MTC (maximum tolerated concentration)” value [4] was 1 µM and the MIC (Gram-positive bacteria; [8]) was 0.8 µg/mL (≈ 1.61 µM). It also gave an MIC (Gram-positive bacteria; [9]) of 1.6 µg/mL (≈ 3.23 µM), an MIC (Gram-positive bacteria; [10]) of 3.2 µg/mL (≈ 6.46 µM) and an MIC (Gram-positive bacteria; [11]) of 0.4 µg/mL (≈ 0.807 µM). The MIC (Gram-positive bacteria; Micrococcus luteus, M. luteus) was 0.025 µg/mL (≈ 0.0505 µM), the MIC (Gram-positive bacteria; [12]) was 0.003 µg/mL (≈ 0.00606 µM) and the MIC (Gram-positive bacteria; [13]) was 0.00125 µg/mL (≈ 0.00252 µM). It also gave an MIC (Gram-positive bacteria; [14]) of 0.2 µg/mL (≈ 0.404 µM), an MIC (Gram-positive bacteria; [15]) of 8 µg/mL (≈ 16.1 µM) and an MIC (Gram-positive bacteria; [16]) of 0.2 µg/mL (≈ 0.404 µM).

For C[C@@H]1C(=O)O[C@@H](C)/C=C/C=C\[C@@H](C)[C@@H]2C=C[C@@H]3C[C@@](C)(O)[C@H](Cl)[C@@H](C)[C@H]3[C@@H]2C(=O)C(Cl)(Cl)C1=O [ChA-Epo2-Cl], the IC50 [1] was 45.9 nM, the IC50 [2] was 38.7 nM and the solubility at 18 h [5] was 280 µg/mL (≈ 526 µM). The MIC (C. glutamicum DSM-20300) was 0.4 µg/mL (≈ 0.752 µM), the MIC (S. aureus Newman) was 0.05 µg/mL (≈ 0.094 µM) and the MIC (B. subtilis DSM-10) was 0.1 µg/mL (≈ 0.188 µM). For the same compound, the “MIC E. coli TolC (+PMBN)” value (E. coli TolC (+PMBN)) was 0.8 µg/mL, the IC50 [7] was 4200 nM and the solubility [6] was 320 µg/mL (≈ 602 µM).
